{"source": "patent US20220118117A1", "about": "“MODULATORS OF METABOTROPIC GLUTAMATE RECEPTOR 4” (The General Hospital Corporation, priority 2019, published 2022)", "key": {"solution stability": {"experiment": "solution stability", "type": "physicochemical", "protocol": "Three pH values, 5, 7.4 and 9.4 were selected to check the solution stability. Aqueous solutions with different pH values were established using the following buffers: sodium acetate-KCl—HCl buffer (20 mM, pH 5.0), phosphate buffer (20 mM, pH 7.4), and boric acid-KCl—NaOH buffer (20 mM, pH 9.4). 891 μL of each pH buffer was placed in different tubes. 9 μL (1 mM) of the sample stock (4, 13, 15 and Diltiazem) was transferred to a particular buffer tube and mixed just before the time 0 min. The mixture was vortexed and incubated at 37° C. After the incubation at the different time points (0, 15, 30, 60, and 120 min), aliquots of 50 μL samples were quenched with 100 μL of ice-cold acetonitrile with 25 μM internal reference, respectively, and analyzed by HPLC. The percentage of the remaining intact compound was calculated by (peak area at the specific time point)/(peak area at 0 min)×100. Every sample was assayed three times."}, "microsomal stability": {"experiment": "microsomal stability", "type": "in vitro ADME, Sprague-Dawley rat", "settings": "rat liver microsomes, NADPH", "protocol": "First, Sprague-Dawley rat liver microsomes (0.5 mg/mL, Sigma-Aldrich, No. M9066) was incubated with PBS (50 mM, pH=7.4) in a reaction tube at 37° C. for 3 min. To the reaction tube were added the test compound (2 μM) and then cofactor, NADPH (1 mM), to start the reaction. The mixture was shaken in a water bath at 37° C. At different time points (0, 5, 10, 15, 30 min), aliquots (50 μL) were removed and added to 100 μl of cold acetonitrile with internal standard (25 μM) to quench the reaction. The precipitated material was by centrifugation (10,000×g, 10 min, 4° C.), and the supernatant was analyzed by RP-HPLC (Column: Phenomenex Luna© 5 μm, Cis, 100 Å, 250×4.6 mm). The RP-HPLC was carried out by using a 15-min gradient method: eluent A: 0.1% formic acid/H2O; eluent B: 0.1% formic acid/CH3CN; gradient: […]; 5% B to 95% B from 1 to 9 min, 95% B from 9 to 12 min, 95% to 5% B from 12 to 13 min, 5% B from 13 to 15 min; flow rate at 0.7 mL/min.\nThe in peak area ratio (test compound peak area at a time point/peak area at 0 min time point) was plotted against time and the gradient of the line was determined. Subsequently, the half-life (t1/2) was calculated as 0.693/k, where the elimination rate constant k equals to −gradient. V (μL/mg) was obtained as a ratio of volume of incubation […]/protein in the incubation (mg). Finally, the intrinsic clearance (CLint) (μL/min/mg protein) was calculated as V*0.693/t1/2."}, "[1]": {"system": "other mGlu receptors (mGluR1, mGluR5, mGluR2, mGluR3, mGluR6, mGluR8)", "experiment": "mGluR subtype selectivity (Ca2+ mobilization and cAMP assays)", "type": "cell-based", "settings": "Gq coupled: Ca2+ mobilization; Gi/o coupled: cAMP assay", "protocol": "Ca^2+ mobilization assay. The Gq coupled receptors (mGluR1 and mGluR5) were tested using Ca^2+ mobilization assay. mGluR1 stable cell lines were plated into poly-L-lysine (PLL) coated 384-well black clear bottom cell culture plates with complete Basal Medium Eagle (BME) buffer, which was composed of 10% dialyzed FBS, penicillin G (100 units/mL), streptomycin (100 μg/mL) with Tetracycline (1 μg/mL) at density of 20,000 cells in 40 μl per well for overnight. […] Once loaded in FLIPR (Molecular Devices), basal fluorescence was measured for 10 s, then 10 μL of test or reference compounds were added, followed by continued fluorescence measurement for an additional 120 s. […]\ncAMP assay. […] Luminescence was counted in a Trilux luminescence counter. Data were analyzed with Prizm 5.0 (GraphPad software).\nThe selectivity of 15 was also analyzed among the various mGluR subtypes, in which the Gq coupled receptors (mGluR1 and mGluR5) were tested using Ca^2+ mobilization assay and the Gi/o coupled receptors (mGluR2, mGluR3, mGluR4, mGluR6 and mGluR8) using the cAMP assay."}}, "note": "Values joined by “and” are separate entries in the source; they are usually repeats but may differ in a detail not shown here. Equal values may be shown once."}
{"smiles": "[2H]C([2H])(F)Sc1cc(NC(=O)c2ccccn2)ccc1Cl", "note": "[Compound 15, N-(4-Chloro-3-((fluoromethyl-d2)thio)phenyl)picolinamide]", "values": [{"measurement": "The solution stability, The intact ± SEM at 120 min (%)", "setting": "solution stability; pH = 5.0, 37° C.", "value": "87.1 ± 0.9", "unit": "%"}, {"measurement": "The solution stability, The intact ± SEM at 120 min (%)", "setting": "solution stability; pH = 7.4, 37° C.", "value": "88.3 ± 1.9", "unit": "%"}, {"measurement": "The solution stability, The intact ± SEM at 120 min (%)", "setting": "solution stability; pH = 9.4, 37° C.", "value": "84.3 ± 1.8", "unit": "%"}, {"measurement": "The microsome stability t1/2", "setting": "microsomal stability", "value": "57.258 min and 57.3 min"}, {"measurement": "selectivity among mGluR subtypes", "setting": "[1]", "value": "has selectivity against other mGlu receptors"}]}
